The values below come from BindingDB's records for doi:10.1021/bi2002967 (University of Colorado Denver, 2011).

In the experiment the target is K562 (Homo sapiens). The experiment can be described thus: Cell assay using human leukemia cell line K562.

The structures appear in SMILES notation. pIC50: −log10 of the molar value. Bounds are passed on as bounds.

What is called pIC50 is the negative decadic logarithm of the IC50, by convention in mol/L. Read a low pIC50 as a large IC50. `Cc1c(COc2ccc([N+](=O)[O-])cc2)c2c(O)c(N=CCCCN)cc(O)c2n1C` [Indolequinone, compd 1] gave a pIC50 of under 5.00.
The same measure for `Cc1c(COc2c(F)cc(F)cc2F)c2c(O)c(N=CCCCN)cc(O)c2n1C` [Indolequinone, compd 2]: under 5.00; for `Cc1c(COc2c(F)cc(F)cc2F)c2c(O)cc(N=CCCCN)c(O)c2n1C` [Indolequinone, compd 3]: under 5.00; for `Cc1c(COc2c(F)cc(F)cc2F)c2c(O)c(N=CCCN)cc(O)c2n1C` [Indolequinone, compd 4]: under 5.00.
Compound `Cc1c(COc2c(F)cc(F)cc2F)c2c(O)c(N=CCCN(C)C)cc(O)c2n1C` [Indolequinone, compd 5] had a pIC50 of under 5.00.
Next, `Cc1c(COc2c(F)cc(F)cc2F)c2c(O)cc(N=CCCN(C)C)c(O)c2n1C` [Indolequinone, compd 6]: under 5.00; `Cc1c(COc2c(F)cc(F)cc2F)c2c(n1C)C(=O)C=C(N(C)CCCN(C)C)C2=O` [Indolequinone, compd 7]: under 5.00.
The same measure for `Cc1c(COc2ccccc2)c2c(O)c(N=CCCN(C)C)cc(O)c2n1C` [Indolequinone, compd 8]: under 5.00.
The same measure for `Cc1c(CO)c2c(O)c(N=CCCN(C)C)cc(O)c2n1C` [Indolequinone, compd 9]: under 5.00.
